Measurements published in patent US12319655B2, “RAF kinase inhibitors and methods of use thereof” (Deciphera Pharmaceuticals, LLC, priority 2021, dated 2025).

Legend:
[1] = biological target: A-Raf kinase (SEQ. ID No: 1) (Homo sapiens (Human), UniProt P10398, Y301D/Y302D); experiment: Biochemical Assay for A-Raf (1); settings: Table J, assay version (1); read-out: ARAF (1) IC50
Experimental: Biochemical Assay for A-Raf (1)
(§1) Activity of A-Raf kinase (SEQ. ID No: 1) was determined spectroscopically using a coupled pyruvate kinase/lactate dehydrogenase assay that continuously monitors the ATP hydrolysis-dependent oxidation of NADH (e.g., Schindler et al., Science, 2000, 289, 1938-1942). Assays were conducted in 384-well plates (100 μL final volume) using 5.55 nM A-Raf (Sigma), 1.5 units pyruvate kinase, 2.1 units lactate dehydrogenase, 1 mM phosphoenol pyruvate, 0.28 mM NADH, 30.1 nM MEK (SignalChem), and 1 mM ATP in assay buffer (100 mM Tris, pH 7.5, 15 mM MgCl2, 0.5 mM DTT, 0.1% octyl-glucoside, 0.002% (w/v) BSA, and 0.002% Triton X-100). Inhibition of A-Raf was measured by adding serial diluted test compound (final assay concentration of 1% DMSO). A decrease in absorption at 340 nm was monitored continuously for 6 h at 30° C. on a multi-mode microplate reader (BioTek). The reaction rate was calculated using the 4 to 5 h time frame. The reaction rate at each concentration of compound was converted to percent inhibition using controls (i.e., reaction with no test compound and reaction with a known inhibitor) and IC50 values were calculated by fitting a four-parameter sigmoidal curve to the data using Prism (GraphPad software).

[2] = biological target: B-Raf kinase (SEQ. ID NO: 2) (Homo sapiens (Human), UniProt P15056); experiment: Biochemical Assay for B-Raf (1); settings: Table J, assay version (1); read-out: BRAF (1) IC50
Experimental: Biochemical Assay for B-Raf (1)
as §1, with “B-Raf” for “A-Raf”, “NO: 2)” for “No: 1)”, “0.13” for “5.55”, “Ph” for “pH”

[3] = biological target: C-Raf kinase (SEQ. ID NO: 3) (Homo sapiens (Human), UniProt P04049, Y340D/Y341D); experiment: Biochemical Assay for C-Raf (1); settings: Table J, assay version (1); read-out: CRAF (1) IC50
Experimental: Biochemical Assay for C-Raf (1)
as §1, with “C-Raf” for “A-Raf”, “NO: 3)” for “No: 1)”, “0.43” for “5.55”, “Ph” for “pH”

[4] = biological target: B-Raf (V600E) (SEQ. ID NO: 4) kinase (Homo sapiens (Human), UniProt P15056, V600E); experiment: Biochemical Assay for B-Raf (V600E) (1); settings: Table J, BRAF V600E, assay version (1); read-out: BRAF VE (1) IC50
Experimental: Biochemical Assay for B-Raf (V600E) (1)
Activity of B-Raf (V600E) (SEQ. ID NO: 4) kinase was determined spectroscopically using a coupled pyruvate kinase/lactate dehydrogenase assay that continuously monitors the ATP hydrolysis-dependent oxidation of NADH (e.g., Schindler et al., Science, 2000, 289, 1938-1942). Assays were conducted in 384-well plates (100 μL final volume) using 0.03 nM B-Raf (SignalChem), 1.5 units pyruvate kinase, 2.1 units lactate dehydrogenase, 1 mM phosphoenol pyruvate, 0.28 mM NADH, 30.1 nM MEK (SignalChem), and 1 mM ATP in assay buffer (100 mM Tris, Ph 7.5, 15 mM MgCl2, 0.5 mM DTT, 0.1% octyl-glucoside, 0.002% (w/v) BSA, and 0.002% Triton X-100). Inhibition of B-Raf (V600E) was measured by adding serial diluted test compound (final assay concentration of 1% DMSO). A decrease in absorption at 340 nm was monitored continuously for 6 h at 30° C. on a multi-mode microplate reader (BioTek). The reaction rate was calculated using the 3 to 4 h time frame. The reaction rate at each concentration of compound was converted to percent inhibition using controls (i.e., reaction with no test compound and reaction with a known inhibitor) and IC50 values were calculated by fitting a four-parameter sigmoidal curve to the data using Prism (GraphPad software).

[5] = test system: A375 cells; experiment: A375 Cell Proliferation Assay (1); assay type: cell-based; settings: Homo sapiens, A-375
Experimental: A375 Cell Proliferation Assay (1)
A375 cells (catalog (#CRL-1619) are obtained from the American Type Culture Collect (ATTC, Manassas, VA). Briefly, cells were grown in DMEM High Glucose supplemented with 10% characterized fetal bovine serum (Invitrogen, Carlsbad, CA) and 1% Penicillin/Streptomycin/L-Glutamine at 37° C., 5% CO2, and 95% humidity. Cells are expanded until reaching 70-95% confluency at which point they are sub-cultured or harvested for assay use. A serial dilution of test compound is dispensed into a 96-well black clear bottom plate in triplicate. Two thousand five hundred cells are added per well in 200 μL complete growth medium in the 96-well plate. Plates are incubated for 67-72 h at 37° C., 5% CO2, and 95% humidity. At the end of the incubation, 40 μL of a 440 μM solution of resazurin (Sigma, St. Louis, MO) in PBS is added to each well of the plate and plates are incubated for an additional 5-6 h at 37° C., 5% CO2, and 95% humidity. Plates are read on a Synergy2 or equivalent reader (Biotek, Winooski VT) using an excitation of 540 nm and an emission of 600 nm. Data is analyzed using Prism software (GraphPad, San Diego, CA) to calculate IC50 values.

A-Raf kinase (SEQ. ID No: 1), sequence (P10398 other isoform, or with tags, fused parts or gaps Y301D (already in the parent)/Y302D (already in the parent)): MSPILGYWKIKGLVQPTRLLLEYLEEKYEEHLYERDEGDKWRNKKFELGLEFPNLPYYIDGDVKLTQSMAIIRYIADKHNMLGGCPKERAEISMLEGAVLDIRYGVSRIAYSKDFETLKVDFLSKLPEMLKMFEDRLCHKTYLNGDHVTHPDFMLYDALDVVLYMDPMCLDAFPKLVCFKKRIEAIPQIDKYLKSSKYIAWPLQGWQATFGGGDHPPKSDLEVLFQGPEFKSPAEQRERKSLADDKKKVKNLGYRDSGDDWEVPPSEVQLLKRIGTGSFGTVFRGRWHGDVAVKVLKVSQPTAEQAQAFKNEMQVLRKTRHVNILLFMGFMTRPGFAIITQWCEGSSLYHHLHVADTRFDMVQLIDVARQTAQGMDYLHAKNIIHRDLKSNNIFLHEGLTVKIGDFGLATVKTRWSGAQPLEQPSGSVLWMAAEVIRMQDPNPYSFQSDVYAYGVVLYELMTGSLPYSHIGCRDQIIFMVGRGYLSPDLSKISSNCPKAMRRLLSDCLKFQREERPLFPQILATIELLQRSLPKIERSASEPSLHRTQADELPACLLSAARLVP
C-Raf kinase (SEQ. ID NO: 3), sequence (P04049 307-648 Y340D/Y341D): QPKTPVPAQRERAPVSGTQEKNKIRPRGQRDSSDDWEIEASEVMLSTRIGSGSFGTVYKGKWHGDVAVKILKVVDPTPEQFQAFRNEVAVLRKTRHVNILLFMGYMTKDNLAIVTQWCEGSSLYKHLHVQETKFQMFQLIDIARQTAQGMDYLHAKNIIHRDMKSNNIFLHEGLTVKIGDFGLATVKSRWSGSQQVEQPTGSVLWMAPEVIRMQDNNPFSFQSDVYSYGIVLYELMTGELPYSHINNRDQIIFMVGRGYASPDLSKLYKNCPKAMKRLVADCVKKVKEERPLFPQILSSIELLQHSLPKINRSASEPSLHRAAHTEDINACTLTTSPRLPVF
B-Raf kinase (SEQ. ID NO: 2), sequence (P15056 416-766): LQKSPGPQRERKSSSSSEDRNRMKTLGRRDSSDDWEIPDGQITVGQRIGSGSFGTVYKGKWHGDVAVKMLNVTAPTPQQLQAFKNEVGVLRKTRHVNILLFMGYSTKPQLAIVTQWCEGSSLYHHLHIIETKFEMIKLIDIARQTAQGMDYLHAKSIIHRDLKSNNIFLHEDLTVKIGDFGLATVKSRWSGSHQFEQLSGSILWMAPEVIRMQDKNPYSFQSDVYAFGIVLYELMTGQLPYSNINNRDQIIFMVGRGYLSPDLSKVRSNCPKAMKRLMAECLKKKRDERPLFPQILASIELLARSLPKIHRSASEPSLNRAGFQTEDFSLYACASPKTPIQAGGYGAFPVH
B-Raf (V600E) (SEQ. ID NO: 4) kinase, sequence (P15056 416-766 V600E): as the sequence (P15056 416-766) above, with V185E counted along it

Compound	IC50 [1] [µM]	IC50 [2] [µM]	IC50 [3] [µM]	IC50 [4] [µM]	IC50 [5] [µM]
Cc1ccc(NC(=O)c2ccnc(C(F)(F)F)c2)cc1-c1ccnc(-c2ccncc2)c1 [Example 44]	1 to 10	≤ 0.1	≤ 0.1	≤ 0.1	1 to 10
Cc1ccc(NC(=O)c2ccnc(C(F)(F)F)c2)cc1-c1ccnc(-c2cncnc2)c1 [Example 45]	1 to 10	≤ 0.1	≤ 0.1	≤ 0.1	1 to 10
CNC(=O)c1cc(-c2cc(-c3cc(NC(=O)c4ccnc(C(F)(F)F)c4)ccc3F)cc(C)n2)ccn1 [Example 66]	1 to 10	1 to 10	≤ 0.1	≤ 0.1	1 to 10
CNC(=O)c1cc(-c2cccc(-c3cc(NC(=O)c4cccc(C)c4)cnc3C)c2)ccn1 [Example 91]	1 to 10	≤ 0.1	≤ 0.1	≤ 0.1	1 to 10
Cc1ncc(NC(=O)c2ccnc(C(F)(F)F)c2)cc1-c1cccc(-c2ccnc(NC(=O)CN(C)C)c2)c1 [Example 95]	1 to 10	≤ 0.1	≤ 0.1	≤ 0.1	0.5 to 1
CC(=O)Nc1cc(-c2cc(-c3cc(NC(=O)c4ccnc(C(C)(C)C#N)c4)c(F)cc3C)cn(C)c2=O)ccn1 [Example 116]	1 to 10	0.1 to 0.5	0.1 to 0.5	≤ 0.1	0.1 to 0.5
Cc1ccc(NC(=O)c2ccnc(C(F)(F)F)c2)cc1-c1ccnc(-c2ccnc(NC(=O)CC#N)c2)n1 [Example 144]	0.1 to 0.5	≤ 0.1	≤ 0.1	≤ 0.1	0.5 to 1
Cc1ccc(NC(=O)c2cccc(C(C)(C)C#N)c2)cc1-c1cncc(-c2ccnc(C(=O)NC3CC3)c2)n1 [Example 149]	1 to 10	0.1 to 0.5	0.1 to 0.5	≤ 0.1	1 to 10
CC(=O)Nc1cc(-c2cc(-c3cc(NC(=O)c4ccnc(C(F)(F)F)c4)c(F)cc3C)cc(=O)n2C)ccn1 [Example 155]	1 to 10	0.1 to 0.5	0.1 to 0.5	≤ 0.1	1 to 10
CC(=O)Nc1cc(-c2nccc(-c3cc(NC(=O)c4ccnc(C(C)(C)C#N)c4)cnc3C)n2)ccn1 [Example 195]	1 to 10	≤ 0.1	≤ 0.1	≤ 0.1	0.1 to 0.5
COC(C)(C)c1cc(C(=O)Nc2ccc(C)c(-c3nccc(-c4ccnc(NC(=O)C5CC5)c4)n3)c2)ccn1 [Example 239]	0.5 to 1	≤ 0.1	≤ 0.1	≤ 0.1	≤ 0.1
Cc1ccc(NC(=O)c2ccnc(C(C)(C)C#N)c2)cc1-c1ccnc(-c2ccnc(NC(=O)C3(C)CC3)c2)n1 [Example 248]	1 to 10	0.1 to 0.5	≤ 0.1	≤ 0.1	0.1 to 0.5
Cc1cc(F)c(NC(=O)c2ccnc(C(F)F)c2)cc1-c1cncc(-c2ccnc(NC(=O)C3CC3)c2)n1 [Example 275]	0.5 to 1	≤ 0.1	≤ 0.1	≤ 0.1	1 to 10
Cc1ncc(NC(=O)c2ccnc(C(C)(C)C#N)c2)cc1-c1cccc(-c2ccnc(N)n2)c1 [Example 289]	1 to 10	0.1 to 0.5	0.1 to 0.5	≤ 0.1	1 to 10
Cc1ncc(NC(=O)c2ccnc(C3(C#N)CC3)c2)cc1-c1nccc(-c2ccnc(NC(=O)C3CC3)c2)n1 [Example 293]	1 to 10	≤ 0.1	≤ 0.1	≤ 0.1	0.1 to 0.5
CNC(=O)c1cc(-c2cnnc(-c3cc(NC(=O)c4cnn(C5CC5)c4)cnc3C)c2)ccn1 [Example 324]	1 to 10	1 to 10	1 to 10	1 to 10	1 to 10
